Measured values reported in US10745388B2, “Indazole compounds and uses thereof” (Incyte Corporation, priority 2018, dated 2020).

Target: HPK1 (Homo sapiens (Human), UniProt Q92918)
Assay: HPK1 Kinase Binding Assay
Conditions: LanthaScreen tracer 222 binding, active HPK1, one hour incubation at 25° C.
Experimental: A stock solution of 1 mM test compound was prepared in DMSO. The compound plate was prepared by 3-fold and 11-point serial dilutions. 0.1 μL of the compound in DMSO was transferred from the compound plate to the white 384 well polystyrene plates. The assay buffer contained 50 mM HEPES, pH 7.5, 0.01% Tween-20, 5 mM MgCl2, 0.01% BSA, and 5 mM DTT. 5 μL of 4 nM active HPK1 (SignalChem M23-11G) prepared in the buffer was added to the plate. The enzyme concentration given was based on the given stock concentration reported by the vender. 5 μL of 18 nM tracer 222 (ThermoFisher PV6121) and 4 nM LanthaScreen Eu-Anti GST antibody (ThermoFisher PV5595) were added. After one hour incubation at 25° C., the plates were read on a PHERAstar FS plate reader (BMG Labtech). Ki values were determined.

HPK1, sequence (Q92918 1-346 limits assumed): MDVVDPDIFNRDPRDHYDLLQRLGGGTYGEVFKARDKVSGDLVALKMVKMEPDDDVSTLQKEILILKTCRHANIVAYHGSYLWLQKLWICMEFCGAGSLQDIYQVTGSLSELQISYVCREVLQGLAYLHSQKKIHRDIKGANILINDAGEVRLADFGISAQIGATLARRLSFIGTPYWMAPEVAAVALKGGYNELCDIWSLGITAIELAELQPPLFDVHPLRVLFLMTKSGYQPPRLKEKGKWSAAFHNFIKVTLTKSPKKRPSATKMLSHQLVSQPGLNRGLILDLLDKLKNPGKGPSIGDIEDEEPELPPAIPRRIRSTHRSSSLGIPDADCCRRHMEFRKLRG

In the case of `COc1cccc(F)c1-c1nccc(C(=O)Nc2ccc3c(cnn3C)c2N(C)C2CC2)n1` [Example 3, N-(4-(Cyclopropyl(methyl)amino)-1-methyl-1H-indazol-5-yl)-2-(2-fluoro-6-methoxyphenyl)pyrimidine-4-carboxamide], the Ki is reported as no more than 0.1 µM.
`COc1cccc(F)c1-c1nccc(C(=O)Nc2ccc3c(cnn3C)c2N(C)CC2(O)COC2)n1` [Example 10, 2-(2-Fluoro-6-methoxyphenyl)-N-(4-(((3-hydroxyoxetan-3-yl)methyl)(methyl)amino)-1-methyl-1H-indazol-5-yl)pyrimidine-4-carboxamide] showed a Ki of 0.5 to 5 µM.
For `COc1cccc(F)c1-c1nccc(C(=O)Nc2ccc3c(cnn3C)c2N(C)C2CCN(C)CC2)n1` [Example 2, 2-(2-Fluoro-6-methoxyphenyl)-N-(1-methyl-4-(methyl(1-methylpiperidin-4-yl)amino)-1H-indazol-5-yl)pyrimidine-4-carboxamide], the Ki was no more than 0.1 µM.
`COc1cccc(F)c1-c1nccc(C(=O)Nc2ccc3c(cnn3C)c2N(C)C2CCOCC2)n1` [Example 7] was tested, and the Ki was no more than 0.1 µM.
For `COc1cccc(F)c1-c1nccc(C(=O)Nc2ccc3c(cnn3C)c2N(C)[C@H]2CCN(C(=O)N(C)C)C2)n1` [Example 14, (S)—N-(4-((1-(Dimethylcarbamoyl)pyrrolidin-3-yl)(methyl)amino)-1-methyl-1H-indazol-5-yl)-2-(2-fluoro-6-methoxyphenyl)pyrimidine-4-carboxamide], the Ki was no more than 0.1 µM.
With `COc1cccc(F)c1-c1nccc(C(=O)Nc2ccc3c(cnn3C)c2N(C)Cc2cccnc2)n1` [Example 6, 2-(2-Fluoro-6-methoxyphenyl)-N-(1-methyl-4-(methyl(pyridin-3-ylmethyl)amino)-1H-indazol-5-yl)pyrimidine-4-carboxamide] the Ki was no more than 0.1 µM.
For `COc1cccc(F)c1-c1nccc(C(=O)Nc2ccc3nn(C)cc3c2N(C)CCO)n1` [1, Peak 1], the Ki was no more than 0.1 µM.
Compound `COc1cccc(F)c1-c1nccc(C(=O)Nc2ccc3c(cnn3C)c2N(C)[C@H]2CCN(S(C)(=O)=O)C2)n1` [Example 13, (S)-2-(2-Fluoro-6-methoxyphenyl)-N-(1-methyl-4-(methyl(1-(methylsulfonyl)pyrrolidin-3-yl)amino)-1H-indazol-5-yl)pyrimidine-4-carboxamide] has a Ki of no more than 0.1 µM.
Work on `COc1cccc(F)c1-c1nccc(C(=O)Nc2ccc3c(cnn3C)c2N(C)C)n1` [Example 4, N-(4-(Dimethylamino)-1-methyl-1H-indazol-5-yl)-2-(2-fluoro-6-methoxyphenyl)pyrimidine-4-carboxamide] yielded a Ki of no more than 0.1 µM.
`COc1cccc(F)c1-c1nccc(C(=O)Nc2ccc3c(cnn3C)c2N(C)CC2CCCO2)n1` (stereo not drawn) [Example 9, 2-(2-Fluoro-6-methoxyphenyl)-N-(1-methyl-4-(methyl((tetrahydrofuran-2-yl)methyl)amino)-1H-indazol-5-yl)pyrimidine-4-carboxamide] was tested, and the Ki was no more than 0.1 µM.
With `CNCc1ccccc1-c1c(NC(=O)c2ccnc(-c3c(F)cccc3OC)n2)ccc2c1cnn2C` [Example 15, 2-(2-Fluoro-6-methoxyphenyl)-N-(1-methyl-4-(2-((methylamino)methyl)phenyl)-1H-indazol-5-yl)pyrimidine-4-carboxamide] the Ki was no more than 0.1 µM.
Compound `COc1cccc(F)c1-c1nccc(C(=O)Nc2ccc3c(cnn3C)c2N(C)Cc2ccccc2)n1` [Example 5, N-(4-(Benzyl(methyl)amino)-1-methyl-1H-indazol-5-yl)-2-(2-fluoro-6-methoxyphenyl)pyrimidine-4-carboxamide] has a Ki of no more than 0.1 µM.
Work on `COc1cccc(F)c1-c1nccc(C(=O)Nc2ccc3c(cnn3C)c2N(C)[C@H]2CCN(C(C)=O)C2)n1` [Example 12, (S)—N-(4-((1-acetylpyrrolidin-3-yl)(methyl)amino)-1-methyl-1H-indazol-5-yl)-2-(2-fluoro-6-methoxyphenyl)pyrimidine-4-carboxamide] yielded a Ki of no more than 0.1 µM.
In the case of `COc1cccc(F)c1-c1nccc(C(=O)Nc2ccc3c(cnn3C)c2N(C)[C@H]2CCNC2)n1` [Example 11, (S)-2-(2-Fluoro-6-methoxyphenyl)-N-(1-methyl-4-(methyl(pyrrolidin-3-yl)amino)-1H-indazol-5-yl)pyrimidine-4-carboxamide], the Ki is reported as no more than 0.1 µM.
With `COc1cccc(F)c1-c1nccc(C(=O)Nc2ccc3c(cnn3C)c2N(C)CC(C)(C)O)n1` [Example 8, 2-(2-Fluoro-6-methoxyphenyl)-N-(4-((2-hydroxy-2-methylpropyl)(methyl)amino)-1-methyl-1H-indazol-5-yl)pyrimidine-4-carboxamide] the Ki was no more than 0.1 µM.
